target: T1, rhesus (Macacca Mulatta) H3 receptor (Macaca mulatta, UniProt Q865E1); test: Rhesus H3 [3H]-Methylhistamine radioligand binding assay (SPA); parameters: species or system rhesus monkey (Macacca Mulatta); conditions: [3H]-Methylhistamine 2 nM, rhesus H3 membranes, Cheng-Prusoff; read-out: Affinity: ki in Rhesus H3 membrane binding ki
T1 construct: pcDNA5/FRT/TO (Invitrogen) containing the rhesus monkey (Macacca Mulatta) 445 amino acid H3 receptor
Procedure: Rhesus H3 membranes were prepared from the Flp-In T-REx 293 Cell Line (Invitrogen) stably transfected with pcDNA5/FRT/TO (Invitrogen) containing the rhesus monkey (Macacca Mulatta) 445 amino acid H3 receptor. (Genbank #AY231164). Stably transfected cultures were amplified in tissue culture flasks by standard tissue culture methods and induced to express rhesus H3 by exposure to 500 ng/ml tetracycline (Cellgro) for 24 hours. After induction, cells were dissociated from flasks utilizing Cell Stripper (Cellgro). Cells were centrifuged (1K×g, 5 min) and pellet frozen in an ethanol-dry ice bath to disrupt cell membranes. Frozen cell pellet was re-suspended in 5 mM HEPES (pH 7.4, Invitrogen) at 10 ml/1000 cm2 of harvested cells. The cell suspension was drawn through an 18 gauge needle (2-3×) followed by a 23 gauge needle (2-3×) to further disrupt cell membranes. The cell suspension was centrifuged (40K×g, 30 min). Cell membrane pellet was re-suspended in 5 mM HEPES (pH 7.4, Invitrogen) at a final protein concentration of 10 mg/ml. Rhesus H3 membranes were stored under liquid nitrogen prior to use in [3H]-Methylhistamine and GTPγS radioligand binding assays.
Rhesus H3 radioligand binding assay was performed using rhesus H3 receptor membranes (prepared as described above), [3H]-Methylhistamine (Perkin Elmer) and WGA SPA beads (wheat germ agglutinin scintillation proximity assay) beads (Amersham). The assay was performed in 96-well Opti-Plates (Packard). Each reaction contained 50 μl rhesus H3 membranes (20-30 μg total protein), 50 μl WGA SPA beads (0.1 μg) and 50 μl of 83Ci/mmol [^3H]-Methylhistamine (final concentration 2 nM) and 50 μl of tested compound. The compounds of this invention and/or vehicle were diluted with binding buffer from 10 mM DMSO stocks. Assay plates were sealed with TopSeal (Perkin Elmer) and mixed on shaker (25° C., 1 hour). Assay plates were read on TopCount scintillation counter (Packard). Results were analyzed by Hill transformation and Ki values were determined by Cheng-Prusoff equation.

T1 sequence (Q865E1 1-445): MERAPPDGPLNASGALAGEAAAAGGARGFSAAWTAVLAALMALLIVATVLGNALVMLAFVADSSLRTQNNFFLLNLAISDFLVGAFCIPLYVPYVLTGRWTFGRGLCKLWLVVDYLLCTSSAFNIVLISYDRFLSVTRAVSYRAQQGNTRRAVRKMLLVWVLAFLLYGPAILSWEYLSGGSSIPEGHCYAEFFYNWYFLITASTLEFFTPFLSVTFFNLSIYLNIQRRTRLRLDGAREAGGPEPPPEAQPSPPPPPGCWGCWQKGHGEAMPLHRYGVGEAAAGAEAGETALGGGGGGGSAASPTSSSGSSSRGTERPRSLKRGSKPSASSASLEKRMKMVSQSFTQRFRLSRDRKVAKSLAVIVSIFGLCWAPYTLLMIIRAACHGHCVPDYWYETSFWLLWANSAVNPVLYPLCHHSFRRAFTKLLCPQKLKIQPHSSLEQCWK

First: Cc1ccc2oc(C(=O)Nc3ccc(N4CCC(CN5CCCC5C)C4)cc3C)cc(=O)c2c1 (stereo not shown) [Example 19, 6-Methyl-4-oxo-4H-chromene-2-carboxylic acid {2-methyl-4-[3-(2-methyl-pyrrolidin-1-ylmethyl)-pyrrolidin-1-yl]-phenyl}-amide]
Second: COc1ccc2cc(C(=O)Nc3ccc(N4CCC(CN5CCCC5C)C4)cc3C)oc2c1 (stereo not shown) [Example 15, 6-Methoxy-benzofuran-2-carboxylic acid {2-methyl-4-[3-(2-methyl-pyrrolidin-1-ylmethyl)-pyrrolidin-1-yl]-phenyl}-amide]
The Ki of the first is 2.5-fold lower: 26.5 nM for the first, 66.7 nM for the second.

Compared with `Cc1cc(N2CCC(CN3CCCC3C)C2)ccc1NC(=O)c1ccc2c(c1)C(O)C(O)C(C)(C)O2` (stereo not shown) [Example 16, 3,4-Dihydroxy-2,2-dimethyl-chroman-6-carboxylic acid {2-methyl-4-[3-(2-methyl-pyrrolidin-1-ylmethyl)-pyrrolidin-1-yl]-phenyl}-amide], `Cc1cc(N2CCC(CN3CCCC3C)C2)ccc1NC(=O)c1ccc2c(c1)OCO2` (stereo not shown) [Example 7, Benzo[1,3]dioxole-5-carboxylic acid {2-methyl-4-[3-(2-methyl-pyrrolidin-1-ylmethyl)-pyrrolidin-1-yl]-phenyl}-amide] is 2-fold lower in Ki: 67.6 nM for the first, 34.2 nM for the second.

`Cc1nc2cc(C(=O)Nc3ccc(N4CCC(CN5CCCC5C)C4)cc3C)ccc2[nH]1` (stereo not shown) [Example 1, 2-M ethyl-1H-benzoimidazole-5-carboxylic acid {2-methyl-4-[3-(2-methyl-pyrrolidin-1-ylmethyl)-pyrrolidin-1-yl]-phenyl}-amide] and `Cc1cc(N2CCC(CN3CCCC3C)C2)ccc1NC(=O)c1ccc2cc[nH]c2c1` (stereo not shown) [Example 8, 1H-Indole-6-carboxylic acid {2-methyl-4-[3-(2-methyl-pyrrolidin-1-ylmethyl)-pyrrolidin-1-yl]-phenyl}-amide] are within 1.5-fold of each other in Ki: 15.7 nM for the first, 18 nM for the second.

First: Cc1cc(N2CCC(CN3CCCC3C)C2)ccc1NC(=O)c1ccc(-n2ccnc2)cc1 (stereo not shown) [Example 9, 4-Imidazol-1-yl-N-{2-methyl-4-[3-(2-methyl-pyrrolidin-1-ylmethyl)-pyrrolidin-1-yl]-phenyl}-benzamide]
Second: Cc1cc(N2CCC(CN3CCCC3C)C2)ccc1NC(=O)c1ccc(CO)cc1 (stereo not shown) [Example 11, 4-Hydroxymethyl-N-{2-methyl-4-[3-(2-methyl-pyrrolidin-1-ylmethyl)-pyrrolidin-1-yl]-phenyl}-benzamide]
The Ki of the first is 20-fold lower: 3.1 nM for the first, 62.1 nM for the second. The first binds more tightly here.

Going from `Cc1cc(N2CCC(CN3CCCC3C)C2)ccc1NC(=O)c1cnc(NCCO)c(Cl)c1` (stereo not shown) [Example 2, 5-Chloro-6-(2-hydroxy-ethylamino)-N-{2-methyl-4-[3-(2-methyl-pyrrolidin-1-ylmethyl)-pyrrolidin-1-yl]-phenyl}-nicotinamide] to `COCCNC(=O)c1ccc(C(=O)Nc2ccc(N3CCC(CN4CCCC4C)C3)cc2C)cn1` (stereo not shown) [Example 14, Pyridine-2,5-dicarboxylic acid 2-[(2-methoxy-ethyl)-amide]5-({2-methyl-4-[3-(2-methyl-pyrrolidin-1-ylmethyl)-pyrrolidin-1-yl]-phenyl}-amide)], the Ki falls from 51.2 nM to 32.3 nM (1.6-fold). The second binds more tightly here.

Going from `CC1=NN(c2ccc(C(=O)Nc3ccc(N4CCC(CN5CCCC5C)C4)cc3C)cc2)C(=O)C1` (stereo not shown) [Example 18, N-{2-Methyl-4-[3-(2-methyl-pyrrolidin-1-ylmethyl)-pyrrolidin-1-yl]-phenyl}-4-(3-methyl-5-oxo-4,5-dihydro-pyrazol-1-yl)-benzamide] to `CC(=O)N1CCCC(c2ccc(C(=O)Nc3ccc(N4CCC(CN5CCCC5C)C4)cc3C)cc2)C1` (stereo not shown) [Example 10, 4-(1-Acetyl-piperidin-3-yl)-N-{2-methyl-4-[3-(2-methyl-pyrrolidin-1-ylmethyl)-pyrrolidin-1-yl]-phenyl}-benzamide], the Ki falls from 59.4 nM to 29.8 nM (2-fold).

First: Cc1cc(N2CCC(CN3CCCC3C)C2)ccc1NC(=O)c1ccc2c(c1)NC(=O)CNC2=O (stereo not shown) [Example 13, 2,5-Dioxo-2,3,4,5-tetrahydro-1H-benzo[e][1,4]diazepine-8-carboxylic acid {2-methyl-4-[3-(2-methyl-pyrrolidin-1-ylmethyl)-pyrrolidin-1-yl]-phenyl}-amide]
Second: Cc1cc(N2CCC(CN3CCCC3C)C2)ccc1NC(=O)c1ccc2c(c1)CCO2 (stereo not shown) [Example 5, 2,3-Dihydro-benzofuran-5-carboxylic acid {2-methyl-4-[3-(2-methyl-pyrrolidin-1-ylmethyl)-pyrrolidin-1-yl]-phenyl}-amide]
The Ki of the first is 4.3-fold lower: 9.3 nM for the first, 40.4 nM for the second.

First: Cc1cc(N2CCC(CN3CCCC3C)C2)ccc1NC(=O)c1cnc2cc(Cl)ccc2c1O (stereo not shown) [Example 3, 7-Chloro-4-hydroxy-quinoline-3-carboxylic acid {2-methyl-4-[3-(2-methyl-pyrrolidin-1-ylmethyl)-pyrrolidin-1-yl]-phenyl}-amide]
Second: Cc1ccc2c(O)c(C(=O)Nc3ccc(N4CCC(CN5CCCC5C)C4)cc3C)cnc2n1 (stereo not shown) [Example 17, 4-Hydroxy-7-methyl-[1,8]naphthyridine-3-carboxylic acid {2-methyl-4-[3-(2-methyl-pyrrolidin-1-ylmethyl)-pyrrolidin-1-yl]-phenyl}-amide]
The Ki of the first is 4.9-fold higher: 94.7 nM for the first, 19.2 nM for the second.

First: Cc1cc(N2CCC(CN3CCCC3C)C2)ccc1NC(=O)c1ccc(-n2cccc2)nc1 (stereo not shown) [Example 4, N-{2-Methyl-4-[3-(2-methyl-pyrrolidin-1-ylmethyl)-pyrrolidin-1-yl]-phenyl}-6-pyrrol-1-yl-nicotinamide]
Second: Cc1cc(N2CCC(CN3CCCC3C)C2)ccc1NC(=O)c1ccc(COCc2ccccc2)nc1 (stereo not shown) [Example 6, 6-Benzyloxymethyl-N-{2-methyl-4-[3-(2-methyl-pyrrolidin-1-ylmethyl)-pyrrolidin-1-yl]-phenyl}-nicotinamide]
The Ki of the first is 2.4-fold lower: 39.3 nM for the first, 95.4 nM for the second.

`COc1ccc2[nH]c(C(=O)Nc3ccc(N4CCC(CN5CCCC5C)C4)cc3C)cc2c1` (stereo not shown) [Example 12, 5-Methoxy-1H-indole-2-carboxylic acid {2-methyl-4-[3-(2-methyl-pyrrolidin-1-ylmethyl)-pyrrolidin-1-yl]-phenyl}-amide] was tested, and the Ki was 61.5 nM.
